Experimental findings from US8614194B1, “Anionic cell penetrating peptide and its use for intracellular delivery” (Kaohsiung Medical University, priority 2012, dated 2013) are described below.

No end group written: not given here.

Format in all cases: cell-based, human
Assay [1] has as its system HeLa cells. Briefly: Fluorescence microscopy of translocation into cells. The note with it: FITC-labeled, 10 μM, 30 minutes, 37° C., FIG. 4. The method, then: (§1) Cells are treated with 10 μM test compound for 30 minutes at 37° C., washed using PBS, and then treated with 0.5% trypsin. Cells are labeled with 5 μg/ml Hoechst 33342 (Invitrogen) and PKH26-GL (Sigma) respectively for nuclei and membrane labeling. Standard protocols are followed according to the kit instructions. Cells are lastly suspended again in PBS for fluorescence images. Fluorescence images are captured by Olympus, CellR and Olympus FV1000 confocal microscope using glass-bottom culture slides with excitation by 488 nm (FITC-labeled peptide) laser line.

The test system of assay [2] is hADSCs. The assay is described as above. Particulars: FITC-labeled, 10 μM, 30 minutes, 37° C., FIG. 5. The method, then: as §1
For assay [3], the system named is HeLa cells. Briefly: Endocytosis inhibition analysis (uptake with inhibitors). The note with it: 10 μM, 37° C., 30 minutes, inhibitors NaN3 and 2DG, EIPA, NaClO3, FIG. 8(A). The method, then:
For inhibition of endocytosis, HeLa cells are treated with 200 mM sodium azide (NaN3; Sigma) and 2-deoxy-D-glucose (2DG; Sigma) for 1 hour to deplete intracellular ATP pools and influence cell metabolism. hADSCs are treated with 10 mM NaN3 and 2DG for 1 h with the same purpose. For inhibition of macropinosome formation, HeLa cells and hADSCs are treated with 3 mM 5-(N-ethyl-N-isopropyl) amiloride (EIPA, Sigma) for 10 minutes. For inhibition of proteoglycan sulfation, HeLa cells and hADSCs are treated with 600 mM sodium chlorate (NaClO3, Sigma) for 2 days. After this treatment of inhibitors, cells are treated with 10 μM test compound (200 μl), and then incubated at 37° C. for 30 minutes. 10^4 cells in 0.1 ml medium are seeded into each well of a 24-well plate, and then trypsin (200 μl) is added into each well. Cells are transferred to a microtube and incubated for 5 minutes. Cells are processed for flow cytometry as described above after being added with 200 μl of medium and washed with PBS.

Take 6-aminocaproic acid-R7 [ACP-R7]: the translocation into cells entry in assay [1] is on record as “crosses into HeLa cells”; in assay [2], “crosses into ADSCs”. The “route of internalization, uptake combined with inhibitors” value in assay [3] is “internalized by macropinocytosis, endocytosis, and direct translocation resulted from proteoglycan sulfation”.
For the substance “AAAADD [A4D2, four alanine residues linked to the N terminal of two aspartate residues]”, the translocation into cells entry in assay [2] was “crosses into ADSCs”.
“AADDDD [A2D4, two alanine residues linked to the N terminal of four aspartate residues]”: the translocation into cells result in assay [2] is on record as “crosses into ADSCs”.
For “DDDDDD [D6, peptide of six aspartate residues]”, the translocation into cells result in assay [2] is given as “crosses into ADSCs”.
With “KD6K-simvastatin: peptide KDDDDDDK carrying simvastatin and PEG500; Lys capped by acetic anhydride or FITC (also: carries simvastatin and PEG500, Lys capped by acetyl or FITC)”, the translocation into cells entry in assay [2] is given as “crosses into ADSCs”.
“KDDDDDD [KD6, one lysine residue linked to the N terminal of six aspartate residues]”: the translocation into cells result in assay [2] is “crosses into ADSCs”.
